For the assay, the system named is Acinetobacter baumannii ATCC17978. Description: Antimicrobial susceptibility testing: 90% growth inhibitory concentration (IC90) determination, Iso-Sensitest broth. The assay is classed as cell-based. Here is the method: Antimicrobial Susceptibility Testing:
90% Growth Inhibitory Concentration (IC90) Determination
The in vitro antimicrobial activity of the compounds was determined according to the following procedure:
The assay used a 10-points Iso-Sensitest broth medium to measure quantitatively the in vitro activity of the compounds against Acinetobacter baumannii ATCC17978 and Acinetobacter baumannii ATCC17961.
Microtiter plates were incubated at 35±2° C.
Bacterial cell growth was determined with the measurement of optical density at λ=600 nm each 20 minutes over a time course of 16 h. Growth inhibition was calculated during the logarithmic growth of the bacterial cells with determination of the concentration inhibiting 50% (IC50) and 90% (IC90) of the growth.

Setting [1] is: Acinetobacter baumannii, ATCC17978, 16 h, read-out: ATCC17978 IC90, 90% growth inhibitory concentration, Acinetobacter baumannii ATCC17978, Iso-Sensitest broth, OD 600 nm over 16 h.
Where [2] appears, read: 90% growth inhibitory concentration, Acinetobacter baumannii ATCC17978, Iso-Sensitest broth, OD 600 nm over 16 h, read-out: ATCC17978 IC90.

Counter-ions that a name gives are not always drawn. Like-named read-outs stand apart in the source and are kept apart here.

Take `COc1ccc(-c2cnc3c(Nc4ccc(C(=O)N5CCC(C(=O)NCC(O)CN)CC5)c(C)c4)nccn23)cc1F` (stereo not drawn) [Example 55, N-(3-amino-2-hydroxypropyl)-1-(4-((3-(3-fluoro-4-methoxyphenyl)imidazo[1,2-a]pyrazin-8-yl)amino)-2-methylbenzoyl)piperidine-4-carboxamide 2,2,2-trifluoroacetate]: the IC90 under setting [1] is 390 nM.

With `COc1ccc(-c2cnc3c(Nc4ccc(C(=O)N5CCOC(CN(C)C)C5)c(C)c4)nccn23)cc1F` (stereo not drawn) [Example 23, [2-[(dimethylamino)methyl]morpholin-4-yl]-[4-[[3-(3-fluoro-4-methoxy-phenyl)imidazo[1,2-a]pyrazin-8-yl]amino]-2-methyl-phenyl]methanone;2,2,2-trifluoroacetic acid], the IC90 under setting [2] was determined as 1100 nM.

For the molecule `Cc1cc(Nc2nccn3c(-c4ccc(O)c(F)c4)cnc23)ccc1C(=O)N1CCC(CN)CC1` [Example 428, [4-(aminomethyl)piperidin-1-yl]-[4-[[3-(3-fluoro-4-hydroxyphenyl)imidazo[1,2-a]pyrazin-8-yl]amino]-2-methylphenyl]methanone], the IC90 under setting [2] is 1300 nM.

For the molecule `COc1ccc(-c2cnc3c(Nc4ccc(C(=O)N5CCC(C(=O)N(C)CCCN)CC5)c(C)c4)nccn23)cc1F` [Example 406, N-(3-aminopropyl)-1-[4-[[3-(3-fluoro-4-methoxyphenyl)imidazo[1,2-a]pyrazin-8-yl]amino]-2-methylbenzoyl]-N-methylpiperidine-4-carboxamide; hydrochloride], the IC90 under setting [1] came to 530 nM.

With `COc1ccc(-c2cnc3c(Nc4ccc(C(=O)N5CCC(C(=O)NC[C@H](O)[C@@H](O)[C@H](O)[C@H](O)CO)CC5)c(C)c4)nccn23)c(F)c1F` [Example 300, 1-[4-[[3-(2,3-difluoro-4-methoxyphenyl)imidazo[1,2-a]pyrazin-8-yl]amino]-2-methylbenzoyl]-N-[(2S,3R,4R,5R)-2,3,4,5,6-pentahydroxyhexyl]piperidine-4-carboxamide], the IC90 under setting [2] was determined as 210 nM.

`Cc1cc(Nc2nccn3c(-c4ccc(OC(F)F)cc4)cnc23)ccc1C(=O)N1CCN(C(=O)[C@@H]2C[C@H](O)CN2)CC1` [Example 182, [4-[[3-[4-(difluoromethoxy)phenyl]imidazo[1,2-a]pyrazin-8-yl]amino]-2-methyl-phenyl]-[4-[(2S,4S)-4-hydroxypyrrolidine-2-carbonyl]piperazin-1-yl]methanone hydrochloride hydrochloride]: the IC90 under setting [2] is 180 nM.

For `Cc1cc(Nc2nccn3c(-c4ccc(OC(F)F)cc4)cnc23)ccc1C(=O)N1CCN(C(=O)C[C@@H]2CCCN2)CC1` [Example 336, 1-[4-[4-[[3-[4-(difluoromethoxy)phenyl]imi-dazo[1,2-a]pyrazin-8-yl]amino]-2-methylbenzoyl]piperazin-1-yl]-2-[(2S)-pyrrolidin-2-yl]ethanone], under setting [1], the IC90 is 460 nM.

Turning to `COc1ccc(-c2cnc3c(Nc4ccc(C(=O)N5CCN(C(=O)N6CCNCC6)CC5)c(C)c4)nccn23)c(F)c1F` [Example 480, [4-[[3-(2,3-difluoro-4-methoxyphenyl)imidazo[1,2-a]pyrazin-8-yl]amino]-2-methylphenyl]-[4-(piperazine-1-carbonyl)piperazin-1-yl]methanone; formic acid], under setting [1], the IC90 worked out at 140 nM.

Regarding `Cc1cc(Nc2nccn3c(-c4ccc(OC(F)F)cc4)cnc23)ccc1C(=O)N1CCN(C(=O)CCN)CC1` [Example 519, 3-amino-1-[4-[4-[[3-[4-(difluoromethoxy)phenyl]imi-dazo[1,2-a]pyrazin-8-yl]amino]-2-methylbenzoyl]piperazin-1-yl]propan-1-one; hydrochloride], the IC90 under setting [1] was determined as 410 nM.

As to `COc1ccc(-c2cnc3c(Nc4ccc(C(=O)N5CCC(C(=O)NCC(O)C(O)CO)CC5)c(C)c4)nccn23)cc1F` (stereo not drawn) [Example 257, 1-[4-[[3-(3-fluoro-4-methoxyphenyl)imidazo[1,2-a]pyrazin-8-yl]amino]-2-methylbenzoyl]-N-(2,3,4-trihydroxybutyl)piperidine-4-carboxamide], the IC90 under setting [2] was determined as 850 nM.

For the molecule `COc1ccc(-c2cnc3c(Nc4ccc(C(=O)N5CCC(C(=O)N[C@@H]6CCNC6)CC5)c(C)c4)nccn23)cc1F` [Example 59, (R)-1-(4-((3-(3-fluoro-4-methoxyphenyl)imidazo[1,2-a]pyrazin-8-yl)amino)-2-methylbenzoyl)-N-(pyrrolidin-3-yl)piperidine-4-carboxamide 2,2,2-trifluoroacetate], the IC90 under setting [1] worked out at 230 nM.

For `COc1ccc(-c2cnc3c(Nc4ccc(C(=O)N5CCN(C(=O)[C@@H]6CCNC[C@@H]6O)CC5)c(C)c4)nccn23)c(Cl)c1F` (relative stereo) [Example 218, [4-[[3-(2-chloro-3-fluoro-4-methoxy-phenyl)imidazo[1,2-a]pyrazin-8-yl]amino]-2-methyl-phenyl]-[4-[(3R,4R)-3-hydroxypiperidine-4-carbonyl]piperazin-1-yl]methanone], the IC90 under setting [2] was 220 nM.

As for `Cc1cc(Nc2nccn3c(-c4ccc(OC(F)F)cc4)cnc23)ccc1C(=O)N1CCN(C(=O)[C@@H](N)CO)CC1` [Example 526, (2S)-2-amino-1-[4-[4-[[3-[4-(difluoromethoxy)phenyl]imi-dazo[1,2-a]pyrazin-8-yl]amino]-2-methylbenzoyl]piperazin-1-yl]-3-hydroxypropan-1-one; hydrochloride], under setting [1], the IC90 came to 560 nM.

Take `CCc1cc(Nc2nccn3c(-c4ccc(OC)c(F)c4)cnc23)ccc1C(=O)N1CCC(C(=O)NCCNC)CC1` [Example 330, 1-[2-ethyl-4-[[3-(3-fluoro-4-methoxyphenyl)imidazo[1,2-a]pyrazin-8-yl]amino]benzoyl]-N-[2-(methylamino)ethyl]piperidine-4-carboxamide; hydrochloride]: the IC90 under setting [1] was 400 nM.

Regarding `Cc1cc(Nc2nccn3c(-c4ccc(OCC#N)c(F)c4Cl)cnc23)ccc1C(=O)N1CCC(C(=O)N2CCNC[C@H]2CO)CC1` [Example 208, 2-[3-chloro-2-fluoro-4-[8-[4-[4-[(2S)-2-(hydroxymethyl)piperazine-1-carbonyl]piperidine-1-carbonyl]-3-methyl-anilino]imidazo[1,2-a]pyrazin-3-yl]phenoxy] acetonitrile formate], the IC90 under setting [2] was 160 nM.

`COc1ccc(-c2cnc3c(Nc4ccc(C(=O)N5CC6(C5)CN(C5CC5)C6)c(C)c4)nccn23)cc1F` [Example 434, (6-cyclopropyl-2,6-diazaspiro[3.3]heptan-2-yl)-[4-[[3-(3-fluoro-4-methoxyphenyl)imidazo[1,2-a]pyrazin-8-yl]amino]-2-methylphenyl]methanone]: the IC90 under setting [2] turned out to be 1800 nM.

For the molecule `COc1ccc(-c2cnc3c(Nc4ccc(C(=O)N5CCC(C(=O)N[C@@H]6CNC[C@H]6O)CC5)c(C)c4)nccn23)cc1F` [Example 56, 1-(4-((3-(3-fluoro-4-methoxyphenyl)imidazo[1,2-a]pyrazin-8-yl)amino)-2-methylbenzoyl)-N-((3R,4R)-4-hydroxypyrrolidin-3-yl)piperidine-4-carboxamide 2,2,2-trifluoroacetate], the IC90 under setting [1] amounted to 220 nM.

Consider `CCc1cc(Nc2nccn3c(-c4ccc(OCC#N)c(F)c4F)cnc23)ccc1C(=O)N1CCN(C(=O)[C@H]2CCNC[C@@H]2O)CC1` (racemic) [Example 498, 2-[4-[8-[3-ethyl-4-[4-[rac-(3R,4S)-3-hydroxypiperidine-4-carbonyl]piperazine-1-carbonyl]anilino]imidazo[1,2-a]pyrazin-3-yl]-2,3-difluorophenoxy]acetonitrile; formic acid], for which, under setting [1], the IC90 amounted to 330 nM.
